Some test systems named below: MALME-3M melanoma; HCT-15 colon; NCI-H522 lung; SF-268 CNS; SF-295 CNS; HL-60(TB) leukemia; TK-10 renal; OVCAR-8 ovarian; HOP-92 NSCLC; SF-539 CNS; RPMI-8226 leukemia; 786-0 renal.
Holding throughout (assay): NCI tumour cell line growth inhibition, 48 h

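1) Cells in 96-well plates. 2) Compound, 48 h, 5 concentrations. 3) Linear interpolation between surrounding doses. 4) Unreached endpoint = highest concentration. TGI: total growth inhibition.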 A value given as a limit tells only on which side of the number the result lay.

As for `O=C(O)c1ccccc1C(=O)NCC1S(=O)(=O)OCCOS1(=O)=O`, the TGI in the experiment with MALME-3M melanoma, in the experiment with HCT-15 colon, in the experiment on NCI-H522 lung, in the experiment with SF-268 CNS, in the experiment on SF-295 CNS and with HL-60(TB) leukemia was > 100 µM each time. The TGI in the experiment with TK-10 renal, in the experiment with OVCAR-8 ovarian, in the experiment with HOP-92 NSCLC, in the experiment with SF-539 CNS, in the experiment on RPMI-8226 leukemia and in the experiment on 786-0 renal was > 100 µM each time.

Take `COC(=O)CCC(=O)c1ccc2c(c1)CCC2`: the TGI in the experiment on MALME-3M melanoma, in the experiment on HCT-15 colon, with NCI-H522 lung, in the experiment with SF-268 CNS, in the experiment with SF-295 CNS and with HL-60(TB) leukemia was > 100 µM each time. For the same molecule, the TGI in the experiment with TK-10 renal, in the experiment on OVCAR-8 ovarian, in the experiment on HOP-92 NSCLC, in the experiment on SF-539 CNS, in the experiment with RPMI-8226 leukemia and in the experiment with 786-0 renal was > 100 µM in each case.

In the case of `CN1C(=O)C2(C)SC1(c1ccccc1)C1C(=O)N(c3ccccc3)C(=O)C12` (stereo not drawn), the TGI in the experiment on MALME-3M melanoma, in the experiment on HCT-15 colon, in the experiment with NCI-H522 lung, in the experiment on SF-268 CNS, in the experiment with SF-295 CNS and with HL-60(TB) leukemia was > 100 µM in each case. For the same molecule, the TGI in the experiment on TK-10 renal, with OVCAR-8 ovarian, in the experiment with HOP-92 NSCLC, in the experiment on SF-539 CNS, in the experiment on RPMI-8226 leukemia and in the experiment with 786-0 renal was > 100 µM throughout.

Turning to `Nc1nc(Cl)cc(NCC2(O)CCC2)n1`, the TGI with MALME-3M melanoma, in the experiment on HCT-15 colon, with NCI-H522 lung, in the experiment on SF-268 CNS, in the experiment with SF-295 CNS and in the experiment with HL-60(TB) leukemia was > 100 µM each time. Further, the TGI in the experiment with TK-10 renal, in the experiment on OVCAR-8 ovarian, in the experiment with HOP-92 NSCLC, in the experiment with SF-539 CNS, in the experiment on RPMI-8226 leukemia and in the experiment on 786-0 renal was > 100 µM in each case.

Take `COc1cccc2c1c1ccc3c(c1n2C)C(=O)C=CC3=O`: the TGI was 27.1 µM with MALME-3M melanoma; 31.8 µM with HCT-15 colon; 14.7 µM in the experiment with NCI-H522 lung; 33.6 µM with SF-268 CNS; > 100 µM in the experiment with SF-295 CNS; > 100 µM in the experiment on HL-60(TB) leukemia. Further, the TGI in the experiment on TK-10 renal turned out to be 33.3 µM; in the experiment on OVCAR-8 ovarian it was 29.7 µM; in the experiment with HOP-92 NSCLC, 25.9 µM; with SF-539 CNS it was 30.9 µM; in the experiment with RPMI-8226 leukemia, 11.6 µM; in the experiment with 786-0 renal, 31.4 µM.

As for `CNC(=O)C(C)NC(=O)C(Cc1ccccc1)NC(=O)c1ccccc1` (stereo not drawn), the TGI with MALME-3M melanoma, in the experiment with HCT-15 colon, in the experiment with NCI-H522 lung, in the experiment on SF-268 CNS, with SF-295 CNS and in the experiment with HL-60(TB) leukemia was > 100 µM in each case. Also, the TGI with TK-10 renal, in the experiment with OVCAR-8 ovarian, in the experiment on HOP-92 NSCLC, in the experiment with SF-539 CNS, with RPMI-8226 leukemia and with 786-0 renal was > 100 µM each time.

`CC(=O)c1nc2ccccc2n1C(C)C(=O)c1ccccc1` (stereo not drawn): the TGI in the experiment on MALME-3M melanoma, in the experiment with HCT-15 colon, in the experiment with NCI-H522 lung, with SF-268 CNS, with SF-295 CNS and with HL-60(TB) leukemia was > 100 µM each time. The TGI in the experiment on TK-10 renal, in the experiment on OVCAR-8 ovarian, in the experiment on HOP-92 NSCLC, in the experiment on SF-539 CNS, with RPMI-8226 leukemia and in the experiment on 786-0 renal was > 100 µM throughout.

Turning to `CCN1CCC(O)(c2ccc(Oc3ccc(Cl)cc3)cc2)C(C(=O)c2ccc(Oc3ccc(Cl)cc3)cc2)C1` (stereo not drawn), the TGI in the experiment on MALME-3M melanoma worked out at 35.6 µM; in the experiment on HCT-15 colon, 19.9 µM; in the experiment on NCI-H522 lung, 12 µM; with SF-268 CNS, 44.3 µM; in the experiment on SF-295 CNS, 27.4 µM; in the experiment on HL-60(TB) leukemia it was 4.46 µM. The TGI came to 23 µM with TK-10 renal; 38.6 µM with OVCAR-8 ovarian; 24.8 µM in the experiment on HOP-92 NSCLC; 30.3 µM in the experiment on SF-539 CNS; 10.9 µM in the experiment with RPMI-8226 leukemia; 12.3 µM with 786-0 renal.

Consider `O=C1/C(=C/c2cccc(Cl)c2)CCCc2ccccc21`, for which the TGI stood at 33.8 µM with MALME-3M melanoma; 39.2 µM in the experiment with HCT-15 colon; 32.1 µM with NCI-H522 lung; 33.4 µM in the experiment on SF-268 CNS; 31.6 µM with SF-295 CNS; 30.7 µM in the experiment on HL-60(TB) leukemia. For the same molecule, the TGI in the experiment on TK-10 renal was 34.9 µM; with OVCAR-8 ovarian, 33.6 µM; in the experiment with HOP-92 NSCLC, 60.4 µM; in the experiment with SF-539 CNS it was 32.1 µM; in the experiment on RPMI-8226 leukemia it was 42.5 µM; in the experiment with 786-0 renal, 33.7 µM.
